Where two headings read alike, the source gives them in different places.
Legend:
[1] = target: hMC4R (Homo sapiens (Human), UniProt P32245); experiment: In vitro binding affinity assay using hMC4R (radioligand competition binding, [125I]-(Nle4, D-Phe7)-α-MSH); settings: geometric mean
Procedure: Example AA. In Vitro Binding Affinity Assay Using hMC4R
The binding affinity of test compounds at the […] (hMC4R) was assessed using a radioligand competition binding assay. […] Cell membranes were bulked and frozen until the assay was performed.
Compounds were solubilized in 100% dimethyl sulfoxide (DMSO) to a concentration of 30 mM. A 10-point intermediate dilution series using half log dilutions was created in 100% DMSO with a top concentration of 0.03 mM. […] The final compound range in the assay was 300 nM to 0.01 nM with a final DMSO concentration of 1%. […] The exact concentration of radioligand used for each experiment was determined by liquid scintillation counting and adjusted if necessary.
Frozen hMC4R cell membranes were thawed and Dounce homogenized. Homogenates were resuspended in assay buffer to a concentration of 2 μg per well. […] The plates were incubated for 2 hours at room temperature.
The raw data (expressed as counts per minute) were analyzed using ActivityBase (IDBS Data Management Software). […] Equilibrium dissociation constant for inhibitor of ligand and receptor interaction (Ki) values were then calculated from the IC50 values using the Cheng-Prusoff equation: Ki=IC50/(1+([L]/Kd)), where [L] is the concentration of the radioligand used in the experiment and Kd is the affinity of the radioligand (determined in separate saturation experiments).

[2] = target: human Melanocortin-4 receptor (MC4R) (Homo sapiens (Human), UniProt P32245); experiment: Functional in vitro MC4R antagonist potency assay (cAMP HTRF in CHO cells); format: cell-based
Sequence of human Melanocortin-4 receptor (MC4R) (P32245 whole entry): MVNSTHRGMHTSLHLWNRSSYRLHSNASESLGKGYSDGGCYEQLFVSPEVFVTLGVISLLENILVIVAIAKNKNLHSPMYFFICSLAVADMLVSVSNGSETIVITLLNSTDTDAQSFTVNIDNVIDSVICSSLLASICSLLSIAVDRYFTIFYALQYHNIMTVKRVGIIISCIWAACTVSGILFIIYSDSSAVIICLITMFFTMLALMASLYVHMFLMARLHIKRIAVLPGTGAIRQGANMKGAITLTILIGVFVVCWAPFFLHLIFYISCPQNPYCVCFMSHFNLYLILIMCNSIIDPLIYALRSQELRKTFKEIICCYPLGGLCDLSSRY
Procedure, shortened: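 CHO cells stably expressing human MC4R were preincubated 30 min at 37 °C with compound ([…], 0.1% DMSO), then stimulated 30 min with EC80 αMSH (200 nM). Intracellular cAMP quantified by HTRF competitive immunoassay and normalized to agonist-stimulated and vehicle-only wells.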

[3] = read-out: Ki (nM) geometric mean
[4] = read-out: Kb (nM) Antagonist geometric mean
[5] = human MC4R in CHO cells, cAMP HTRF, 200 nM aMSH challenge, Kb from IC50 by Leff-Dougall equation, geometric mean, read-out: Kb (nM) Antagonist geometric

Sequence of hMC4R (P32245 whole entry): as above

SMILES	Ki [1, 3]	Kb [2, 4]	Ki ([1]; read-out: Ki (nM) geometric)	Kb [2, 5]
Cc1nc2c(cc1-c1ncccn1)CC[C@@]1(CCN(C(=O)[C@H](C)c3ccc(F)c(F)c3)C1)N2 (single isomer, unassigned) [Example 51]	120 nM	> 110 nM	–	–
Cc1nc2c(cc1-c1ncccn1)CC[C@@]1(CCN(C(=O)[C@H](C)c3cc(F)c(F)cc3F)C1)N2 (single isomer, unassigned) [Example 52]	0.68 nM	2.6 nM	–	–
Cc1nc2c(cc1-c1ncccn1)CC[C@@]1(CCN(C(=O)[C@H](C)c3cc(F)c(F)cc3F)C1)N2 (single isomer, unassigned) [Example 53]	54 nM	> 95 nM	–	–
Cc1nc2c(cc1-c1ncccn1)CC[C@@]1(CCN(C(=O)[C@H](C)c3cc(F)c(F)c(F)c3)C1)N2 (single isomer, unassigned) [Example 55]	58 nM	> 95 nM	–	–
Cc1nc2c(cc1-c1ncccn1)CC[C@@]1(CCN(C(=O)[C@H](C)c3cc(F)c(F)c(F)c3)C1)N2 (single isomer, unassigned) [Example 56]	0.51 nM	0.8 nM	–	–
COc1nccc([C@@H](C)C(=O)N2CC[C@@]3(CCc4cc(-c5ncccn5)c(C)nc4N3)C2)c1F (single isomer, unassigned) [Example 57]	2.5 nM	12 nM	–	–
COc1nccc([C@@H](C)C(=O)N2CC[C@@]3(CCc4cc(-c5ncccn5)c(C)nc4N3)C2)c1F (single isomer, unassigned) [Example 58]	190 nM	> 62 nM	–	–
Cc1nc2c(cc1-c1ncccn1)CC[C@@]1(CCN(C(=O)[C@H](C)c3cc(OC(F)F)ncc3Cl)C1)N2 (single isomer, unassigned) [Example 60]	0.54 nM	0.18 nM	–	–
COc1cc(OC(F)F)cc([C@@H](C)C(=O)N2CC[C@@]3(CCc4cc(-c5ncccn5)c(C)nc4N3)C2)c1 (single isomer, unassigned) [Example 62]	0.15 nM	0.08 nM	–	–
Cc1nc2c(cc1-c1ncccn1)CC[C@@]1(CCN(C(=O)C(C)c3cc(OC(F)(F)F)ncc3Cl)C1)N2 (single isomer, unassigned) [Example 64]	1 nM	5.1 nM	–	–
Cc1nc2c(cc1-c1ncccn1)CC[C@@]1(CCN(C(=O)[C@H](C)c3cc(OC(F)(F)F)ncc3F)C1)N2 (single isomer, unassigned) [Example 76]	2.2 nM	9 nM	–	–
Cc1nc2c(cc1-c1ncccn1)CC[C@@]1(CCN(C(=O)[C@H](C)c3cc(OC(F)F)ncc3F)C1)N2 (single isomer, unassigned) [Example 78]	0.62 nM	1.2 nM	–	–
Cc1nc2c(cc1-c1ncccn1)CC[C@@]1(CCN(C(=O)[C@H](C)c3cc(C(F)(F)F)ncc3F)C1)N2 (single isomer, unassigned) [Example 80]	8 nM	28 nM	–	–
COc1cc([C@@H](C)C(=O)N2CC[C@@]3(CCc4cc(-c5nc(C(F)(F)F)n(C)n5)c(C)nc4N3)C2)c(F)cn1 (single isomer, unassigned) [Example 93]	16 nM	4.1 nM	–	–
COc1cc([C@@H](C)C(=O)N2CC[C@@]3(CCc4cc(-c5nc(C(F)(F)F)n(C)n5)c(C)nc4N3)C2)c(Cl)cn1 (single isomer, unassigned) [Example 95]	86 nM	7.5 nM	–	–
COc1cc(OC)cc([C@@H](C)C(=O)N2CC[C@@]3(CCc4ccc(C)nc4N3)C2)c1 (single isomer, unassigned) [Example 96]	4.1 nM	11 nM	–	–
COc1cc([C@@H](C)C(=O)N2CC[C@@]3(CCc4cc(-c5cnn(C)c5)c(C)nc4N3)C2)c(Cl)cn1 (single isomer, unassigned) [Example 105]	–	–	54 nM	16 nM

SMILES	Ki [1, 3]	Kb [2, 4]	Ki ([1]; read-out: Ki (nM) geometric)	Kb [2, 5]
Cc1nc2c(cc1-c1nnn(C)n1)CC[C@@]1(CCN(C(=O)[C@H](C)c3ccc(OC(F)F)nc3)C1)N2 (single isomer, unassigned) [Example 108]	–	–	1.2 nM	7.1 nM
COc1cc([C@@H](C)C(=O)N2CC[C@@]3(CCc4cc(-c5nc(OC)n(C)n5)c(C)nc4N3)C2)c(F)cn1 (single isomer, unassigned) [Example 113]	–	–	17 nM	8 nM
COc1cc([C@@H](C)C(=O)N2CCC3(CCc4cc(-c5nc(OC)n(C)n5)c(C)nc4N3)C2)c(Cl)cn1 (single isomer, unassigned) [Example 114]	–	–	0.48 nM	0.25 nM
COc1cc([C@@H](C)C(=O)N2CCC3(CCc4cc(-c5nc(OC)n(C)n5)c(C)nc4N3)C2)c(Cl)cn1 (single isomer, unassigned) [Example 115]	–	–	31 nM	3.5 nM
COc1cc([C@@H](C)C(=O)N2CC[C@@]3(CCc4cc(-c5nc(C(F)F)n(C)n5)c(C)nc4N3)C2)nc(C)n1 (single isomer, unassigned) [Example 124]	–	–	6.7 nM	0.81 nM
COc1cc([C@@H](C)C(=O)N2CC[C@@]3(CCc4cc(-c5nnn(C)n5)c(C)nc4N3)C2)nc(C(F)F)n1 (single isomer, unassigned) [Example 128]	–	–	10 nM	3.8 nM
COc1cc([C@@H](C)C(=O)N2CC[C@@]3(CCc4cc(-c5nc6ccccn6n5)c(C)nc4N3)C2)nc(C(F)F)n1 (single isomer, unassigned) [Example 129]	–	–	0.44 nM	1.5 nM
COc1cc([C@@H](C)C(=O)N2CC[C@@]3(CCc4cc(-c5nc6ccccn6n5)c(C)nc4N3)C2)nc(C(F)F)n1 (single isomer, unassigned) [Example 130]	–	–	5.9 nM	9 nM
COc1ncc(F)c([C@@H](C)C(=O)N2CC[C@@]3(CCc4cc(-c5nc6ccccn6n5)c(C)nc4N3)C2)n1 (single isomer, unassigned) [Example 132]	–	–	3.4 nM	35 nM
COc1ncc(F)c([C@@H](C)C(=O)N2CC[C@@]3(CCc4cc(-c5nnn(C)n5)c(C)nc4N3)C2)n1 (single isomer, unassigned) [Example 135]	–	–	3.8 nM	10 nM
COc1cc([C@@H](C)C(=O)N2CC[C@@]3(CCc4cc(-c5ncccn5)c(C)nc4N3)C2)c(C)cn1 (single isomer, unassigned) [Example 137]	–	–	59 nM	19 nM
COc1cc([C@](C)(F)C(=O)N2CC[C@@]3(CCc4cc(-c5ncccn5)c(C)nc4N3)C2)c(F)cn1 (single isomer, unassigned) [Example 149]	–	–	1.8 nM	7.9 nM
Cc1nc2c(cc1-c1ncccn1)CC[C@@]1(CCN(C(=O)[C@H](C)c3ccc(F)cc3F)C1)N2 (single isomer, unassigned) [Example 191]	–	–	230 nM	> 94 nM
Cc1nc2c(cc1-c1ncccn1)CC[C@@]1(CCN(C(=O)[C@H](C)c3ccnc(OC(F)F)c3)C1)N2 (single isomer, unassigned) [Example 195]	–	–	1.2 nM	3.5 nM
COc1cc(CC(=O)N2CC[C@@]3(CCc4cc(-c5ncccn5)c(C)nc4N3)C2)c(F)cn1 [Example 106, 2-(5-fluoro-2-methoxypyridin-4-yl)-1-[(2S)-7-methyl-6-(pyrimidin-2-yl)-3,4-dihydro-1H-spiro[1,8-naphthyridine-2,3′-pyrrolidin]-1′-yl]ethan-1-one]	–	–	3.5 nM	6.3 nM
COc1cc([C@@H](C)C(=O)N2CC[C@@]3(CCc4cc(-c5nc6ccccn6n5)c(C)nc4N3)C2)c(F)cn1 [Example 111, (2R)-2-(5-fluoro-2-methoxypyridin-4-yl)-1-[(2S)-7-methyl-6-([1,2,4]triazolo[1,5-a]pyridin-2-yl)-3,4-dihydro-1H-spiro[1,8-naphthyridine-2,3′-pyrrolidin]-1′-yl]propan-1-one]	–	–	0.25 nM	0.47 nM
COc1cc([C@@H](C)C(=O)N2CC[C@@]3(CCc4cc(-c5cncc(OC)n5)c(C)nc4N3)C2)c(F)cn1 [Example 197, (2R)-2-(5-fluoro-2-methoxypyridin-4-yl)-1-[(2S)-6-(6-methoxypyrazin-2-yl)-7-methyl-3,4-dihydro-1H-spiro[1,8-naphthyridine-2,3′-pyrrolidin]-1′-yl]propan-1-one]	–	–	18 nM	33 nM

From patent US12187727B2, “Methods for antagonizing a melanocortin 4 receptor” (Pfizer Inc., priority 2020, dated 2025)
